{"source": "patent US20090263333A1", "about": "“Pharmaceutical compounds and compositions” (Cipla Limited, priority 2004, published 2009)", "origin": "cited, not measured here", "details": "dose comparison with racemic salbutamol"}
{"smiles": "CC(C)(C)NC[C@H](O)c1ccc(O)c(CO)c1", "note": "[Levosalbutamol, levosalbutamol]", "values": [{"measurement": "efficacy relative to racemic salbutamol", "result": "comparable efficacy at nearly one-fourth the dose of racemic salbutamol"}]}
